Experimental data: patent US5236918A, “6-aryl-3-cyanaminopyridazines, their preparation and use and medicaments containing them” (BYK Gulden Lomberg Chemische Fabrik GmbH, priority 1989, dated 1993)

Key:
[1] = test system: tracheal ring chain of the guinea-pig; experiment: bronchospasmolytic action on the tracheal ring chain of the guinea-pig in vitro (relaxation of stable tonic spontaneous contraction); assay type: cell-based; details: for EC50: Cavia porcellus, EC50 in mol/l, 50% of the maximum relaxation achievable with (-)isoprenaline 10^-6 mol/l, spontaneous contraction, 37° C.; for [EC50]theophylline / [EC50]substance: quotient of EC50 values, theophylline = 1
Description: The bronchospasmolytic action of the compounds on the tracheal ring chain of the guinea-pig was tested in vitro as follows: Four parallel tracheal ring chains, each consisting of 6 individual rings, of the guinea-pig (female and male, 430-600 g), in an organ bath [5 ml, Krebs-Henseleit solution with addition of phentolamine (10^-5 mol/l), 37° C., pretension of the organs 2 g, gassing with carbogen] develop a stable, tonic spontaneous contraction after about 20 to 30 minutes. Relaxation can be brought about on these permanently contracted organs under isometric measurement conditions by application of the test substance in a cumulatively semi-logarithmically increasing concentration (e.g. 1×10^-6 +2×10^-6 +7×10^-6 +2×10^-5etc. mol/l), a constant relaxation response being awaited after each individual dose of the test substance before the next higher concentration is applied. A complete dose/effect curve of the test substance is thus obtained over a period of 20 to 30 minutes. The particular relaxation is expressed as the percentage fraction of the maximum relaxation which can be achieved by addition of (-)isoprenaline (10^-6 mol/l).

[2] = test system: PDE IV; experiment: inhibition of PDE IV from the canine trachea; assay type: biochemical; details: for [IC50]theophylline / [IC50]substance: PDE IV canine trachea, quotient of IC50 values, theophylline = 1; for -log[IC50] PDE IV canine trachea: cAMP 0.5 μmol/l, 37° C., 20 minutes
From the text: (§1) The inhibition of phosphodiesterases of classes III (PDE III=high-affinity cAMP-PDE which can be inhibited by cGMP) and IV (PDE IV=high-affinity cAMP-PDE which cannot be inhibited by cGMP, Rolipram-sensitive) is regarded as being particularly conclusive for a bronchospasmolytic and/or antiinflammatory action which may be expected [H. Hidaka et al., Adv. Cycl. Nucl. Res. 13, 145 (1984); Tips 5, 237 (1984); R. Weishaar et al., J. Med. Chem. 28, 537 (1985); S. A. Harrison et al., Molec. Pharmac. 29, 506 (1986); J. Klein-Tebbe et al., Allergologie 12, 12 (1989); C. Schudt et al., Allergologie 12, 12 (1989)].
(§2) The PDE inhibition of the compounds according to the invention was therefore determined on a PDE III isolated from human platelets and PDE IV isolated from human neutrophilic polymorphonuclear cells (PMNs) and from the canine trachea. The phosphodiesterases III and IV are isolated by chromatography by the method of Polson et al., Biochem. Pharmacol. 31, 3403-3406 (1982).
(§3) The substances are dissolved in DMSO and diluted further. From a series of solutions diluted up to a hundred-fold, 2.1 μl portions are taken and 212 μl reaction mixture are added. The reaction mixture contains Hepes (100 mmol/l), DTE (5 mmol/l), MgCl2 (5 mmol/l), CaCl2 (10 μmol/l), BSA fraction V 0.5 mg/ml, cAMP 0.5 μmol/l, 2,8-^3 H-cAMP 250,000 cpm/ml (0.3 μCi/ml, s.a. 33.5 μCi/mmol) and SV (snake venom) (25 μg/212 μl test batch).
(§4) The reaction is started by addition of 10 μl PDE to the reaction mixture and to the substance batch. The mixtures are then incubated at 37° C. for 20 minutes. The reaction is stopped by heating at 95° C. for 45 seconds. After the samples have cooled, the SV solution is added, the 5-AMP formed being cleaved. After incubation for 30 minutes at 37° C., this reaction is stopped by addition of 1 ml anion exchanger suspension. The cAMP which remains is thereby bonded. The adenosine formed remains in the supernatant after centrifugation and can be measured in an aliquot by the radioactivity contained therein.

[3] = molecular target: T1, PDE III (Homo sapiens, UniProt Q14432); experiment: inhibition of PDE III isolated from human platelets; assay type: biochemical; details: for [IC50]theophylline / [IC50]substance: PDE III, quotient of IC50 values, theophylline = 1; for IC50: human platelets, cAMP 0.5 μmol/l, 37° C., 20 minutes, read-out: -log[IC50] PDE III (converted)
T1 construct: PDE III isolated from human platelets; from tissue; host or cells: human platelets
From the text: as §1, §2, §3, §4

[4] = test system: PDE IV; experiment: inhibition of PDE IV from human neutrophilic polymorphonuclear cells (PMNs); assay type: biochemical; details: for [IC50]theophylline / [IC50]substance: PDE IV human PMNs, quotient of IC50 values, theophylline = 1; for -log[IC50] PDE IV PNMs: human neutrophilic polymorphonuclear cells, cAMP 0.5 μmol/l, 37° C., 20 minutes
From the text: as §1, §2, §3, §4

[5] = test system: acetylcholine-induced bronchospasm; experiment: protective action against acetylcholine-induced bronchospasm on the conscious guinea-pig; assay type: in vivo; details: Cavia porcellus, 0.5 h; verum, oral, 100 μmol/kg, 30 minutes after administration; protected = latency period at least three times; read-out: Number of animals protected/number of animals used (converted)
Description: The bronchospasmolytic action was additionally tested on the model of "Protective action against acetylcholine-induced bronchospasm on the conscious guinea-pig":
Guinea-pigs (250-350 g) are exposed in a closed Plexiglas cylinder (volume 5 l) to an acetylcholine mist (0.06% in 0.9% sodium chloride solution; ultrasonic mister Heyer Use 77) twice before administration of the substance at an interval of 20 minutes, and 30 minutes after administration of the substance. The time from the start of misting to the onset of clear respiratory exertion (under certain circumstances hypoxic convulsions in the lateral position) is measured and defined as the latency period. A prolonging of the latency period after administration of the substance to at least three times the average latency period before administration of the substance is regarded as a protective action, and the number of protected animals in the group is stated. The test substances are administered orally by means of a stomach tube (dose 100 μmol/kg, volume 1 ml/kg, suspending agent 4% Methocel suspension in 0.9% sodium chloride solution).
The test substance is administered perorally by means of a stomach tube (standard dose 100 μmol, volume 1 ml 4% Methocel suspension in 0.9% sodium chloride solution/kg). After 30 minutes, the animals are exposed to the acetylcholine mist again and the latency periods are measured. Prolonging of the latency period to at least three times the length is regarded as a protective action.

T1 sequence (Q14432 whole entry): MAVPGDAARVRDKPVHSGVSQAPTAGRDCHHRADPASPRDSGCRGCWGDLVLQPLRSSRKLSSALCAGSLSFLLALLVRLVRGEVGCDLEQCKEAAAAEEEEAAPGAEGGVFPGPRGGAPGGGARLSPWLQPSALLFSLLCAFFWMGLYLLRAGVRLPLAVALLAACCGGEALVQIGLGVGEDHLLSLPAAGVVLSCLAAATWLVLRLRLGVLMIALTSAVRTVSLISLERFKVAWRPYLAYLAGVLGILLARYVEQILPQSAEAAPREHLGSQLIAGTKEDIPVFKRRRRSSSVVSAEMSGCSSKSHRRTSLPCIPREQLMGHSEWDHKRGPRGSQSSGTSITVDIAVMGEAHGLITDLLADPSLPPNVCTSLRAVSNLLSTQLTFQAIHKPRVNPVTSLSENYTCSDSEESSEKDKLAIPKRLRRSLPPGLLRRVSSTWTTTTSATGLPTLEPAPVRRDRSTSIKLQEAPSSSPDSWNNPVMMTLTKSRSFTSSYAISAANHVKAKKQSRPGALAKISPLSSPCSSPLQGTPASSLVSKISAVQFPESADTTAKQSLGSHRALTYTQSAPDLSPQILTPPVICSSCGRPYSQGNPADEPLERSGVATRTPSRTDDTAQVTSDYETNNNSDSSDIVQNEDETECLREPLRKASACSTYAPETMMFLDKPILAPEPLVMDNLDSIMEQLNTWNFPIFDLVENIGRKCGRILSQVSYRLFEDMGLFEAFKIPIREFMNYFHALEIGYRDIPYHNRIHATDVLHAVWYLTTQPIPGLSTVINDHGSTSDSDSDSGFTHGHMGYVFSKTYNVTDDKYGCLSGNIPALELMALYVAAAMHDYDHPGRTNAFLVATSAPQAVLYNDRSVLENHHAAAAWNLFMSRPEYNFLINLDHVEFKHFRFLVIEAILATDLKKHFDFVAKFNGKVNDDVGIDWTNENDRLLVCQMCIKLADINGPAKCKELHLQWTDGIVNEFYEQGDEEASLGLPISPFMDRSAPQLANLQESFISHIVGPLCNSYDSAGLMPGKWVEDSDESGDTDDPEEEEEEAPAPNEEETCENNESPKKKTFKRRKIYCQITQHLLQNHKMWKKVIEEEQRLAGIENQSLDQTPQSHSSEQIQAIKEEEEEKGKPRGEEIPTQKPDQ

SMILES	EC50 [1] [µM]	[EC50]theophylline / [EC50]substance [1]	[IC50]theophylline / [IC50]substance [2]	-log[IC50] PDE IV canine trachea [2]	[IC50]theophylline / [IC50]substance [3]	IC50 [3] [µM]	[IC50]theophylline / [IC50]substance [4]	-log[IC50] PDE IV PNMs [4]	responders at 100 µmol/kg [5] [%]
COc1ccc(-c2ccc(NC#N)nn2)cc1OC [Compound 10, 3-Cyanamino-6-(3,4-dimethoxyphenyl)pyridazine]	7.08	19.1	74.1	5.68	15.1	10.7			
COc1cc(-c2ccc(NC#N)nn2)ccc1OC(C)C [Compound 6, 3-Cyanamino-6-[3-methoxy-4-(1-methylethoxy)phenyl]pyridazine]	8.13	16.6			25.7	6.31			
COc1ccc(-c2ccc(NC#N)nn2)cc1OC1CCCC1 [Compound 11, 3-Cyanamino-6-(3-cyclopentyloxy-4-methoxyphenyl)pyridazine]	0.562	240	120	5.89			288	6.22	
COc1ccc(-c2ccc(NC#N)nn2)cc1OC(F)F [Compound 9, 3-Cyanamino-6-(3-difluoromethoxy-4-methoxyphenyl)pyridazine]	2.34	57.6	69.2	5.65	13.2	12.3			
COc1cc(-c2ccc(NC#N)nn2)ccc1OCC(C)C [Compound 5, 3-Cyanamino-6-[3-methoxy-4-(2-methylpropoxy)phenyl]pyridazine]	3.55	38.1							
CCOc1ccc(-c2ccc(NC#N)nn2)cc1OC(F)F [Compound 14, 3-Cyanamino-6-(3-difluoromethoxy-4-ethoxyphenyl)pyridazine]	2.04	66.1					85.1	5.69	
COc1ccc(-c2ccc(NC#N)nn2)cc1OCC1CCC1 [Compound 15, 3-Cyanamino-6-(3-cyclobutylmethoxy-4-methoxyphenyl)pyridazine]	0.912	148	77.7	5.70					
CCOc1ccc(-c2ccc(NC#N)nn2)cc1OC [Compound 7, 3-Cyanamino-6-(4-ethoxy-3-methoxyphenyl)pyridazine]	6.46	20.9	32.4	5.32	18.2	8.91			
CCOc1cc(-c2ccc(NC#N)nn2)ccc1OC [Compound 2, 3-Cyanamino-6-(3-ethoxy-4-methoxyphenyl)pyridazine]	3.02	44.7	95.6	5.79	15.5	10.5			
COc1cc(-c2ccc(NC#N)nn2)ccc1OC(F)F [Compound 8, 3-Cyanamino-6-(4-difluoromethoxy-3-methoxyphenyl)pyridazine]	1.86	72.5	70.8	5.66					
CCCOc1ccc(-c2ccc(NC#N)nn2)cc1OC [Compound 1, 3-Cyanamino-6-(3-methoxy-4-n-propoxyphenyl)pyridazine]	5.62	24.0							
N#CNc1ccc(-c2ccc(OCC3CC3)c(OC(F)F)c2)nn1 [Compound 21, 3-Cyanamino-6-(4-cyclopropylmethoxy-3-difluoromethoxyphenyl)pyridazine]	1	135							
N#CNc1ccc(-c2ccc(OC(F)F)c(OC3CCCC3)c2)nn1 [Compound 17, 3-Cyanamino-6-(3-cyclopentyloxy-4-difluoromethoxyphenyl)pyridazine]	0.759	178					513	6.47	
N#CNc1ccc(-c2ccc(OC(F)F)c(OCC3CC3)c2)nn1 [Compound 18, 3-Cyanamino-6-(3-cyclopropylmethoxy-4-difluoromethoxyphenyl)pyridazine]	0.562	240					759	6.64	50
CC(C)COc1cc(-c2ccc(NC#N)nn2)ccc1OC(F)F [Compound 19, 3-Cyanamino-6-[4-difluoromethoxy-3-(2-methylpropoxy)phenyl]pyridazine]	1.41	95.6					525	6.48	
N#CNc1ccc(-c2ccc(OC(F)F)c(OCC(F)(F)F)c2)nn1 [Compound 20, 3-Cyanamino-6-[4-difluoromethoxy-3-(2,2,2-trifluoroethoxy)phenyl] pyridazine]	2.29	58.9					148	5.93	55
CC(C)Oc1cc(-c2ccc(NC#N)nn2)ccc1OC(F)F [Compound 16, 3-Cyanamino-6-[4-difluoromethoxy-3-(1-methylethoxy)phenyl]pyridazine]	0.661	204					550	6.50	50
